Measurements published in ChEMBL document CHEMBL1201862, “PubChem BioAssay data set” (2004).
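Protocol summary: plate cells (96-well), add compound at 5 concentrations, incubate 48 h, interpolate endpoints linearly. GI50: concentration for 50% inhibition of growth.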 Calls of active or inactive are those of the source. Cut-off read from the data, not from the text of the source: active = GI50 up to about 1.1 µM and inactive = higher.

Experiments:
Test in all cases: growth of human tumour cells (NCI), 48 h
Hs-578T = test system: Hs-578T
SK-MEL-5 = test system: SK-MEL-5
MDA-MB-231 = test system: MDA-MB-231
Malme-3M = test system: Malme-3M
SR = test system: SR
HOP-92 = test system: HOP-92
ACHN = test system: ACHN
MDA-MB-435 = test system: MDA-MB-435
COLO 205 = test system: COLO 205
T47D = test system: T47D
CCRF-CEM = test system: CCRF-CEM
SF-295 = test system: SF-295
A498 = test system: A498
EKVX = test system: EKVX
HL-60 = test system: HL-60
K562 = test system: K562
RXF 393 = test system: RXF 393
OVCAR-8 = test system: OVCAR-8
UO-31 = test system: UO-31
A549 = test system: A549
TK-10 = test system: TK-10
NCI-H522 = test system: NCI-H522
NCI-H23 = test system: NCI-H23
SNB-75 = test system: SNB-75
HCT-116 = test system: HCT-116
NCI-H226 = test system: NCI-H226
786-0 = test system: 786-0
CAKI-1 = test system: CAKI-1
MCF7 = test system: MCF7
SW-620 = test system: SW-620
BT-549 = test system: BT-549
DU-145 = test system: DU-145
MDA-N = test system: MDA-N
HOP-62 = test system: HOP-62
SN12C = test system: SN12C
OVCAR-3 = test system: OVCAR-3
U-251 = test system: U-251
MOLT-4 = test system: MOLT-4
SK-OV-3 = test system: SK-OV-3
SF-539 = test system: SF-539
OVCAR-5 = test system: OVCAR-5
SNB-19 = test system: SNB-19
HCC 2998 = test system: HCC 2998
IGROV-1 = test system: IGROV-1
HT-29 = test system: HT-29
KM12 = test system: KM12
PC-3 = test system: PC-3
NCI-H460 = test system: NCI-H460
SK-MEL-28 = test system: SK-MEL-28
UACC-62 = test system: UACC-62
OVCAR-4 = test system: OVCAR-4
M14 = test system: M14
SF-268 = test system: SF-268
UACC-257 = test system: UACC-257
HCT-15 = test system: HCT-15
SK-MEL-2 = test system: SK-MEL-2
LOX IMVI = test system: LOX IMVI
RPMI-8226 = test system: RPMI-8226
NCI/ADR-RES = test system: NCI/ADR-RES

Measured: GI50

CC(=O)Oc1ccc2c(c1)CC[C@@H]1C2CC[C@]2(C)C(=O)NC(=O)CC12 (stereo not given in full)
inactive: Hs-578T > 100 µM | SK-MEL-5 > 100 µM | MDA-MB-231 > 100 µM | Malme-3M > 100 µM | SR 91.4 µM | HOP-92 > 100 µM | ACHN > 100 µM | MDA-MB-435 > 100 µM | COLO 205 > 100 µM | T47D > 100 µM | CCRF-CEM > 100 µM | SF-295 > 100 µM | A498 > 100 µM | EKVX 23.9 µM | HL-60 > 100 µM | K562 > 100 µM | RXF 393 > 100 µM | OVCAR-8 > 100 µM | UO-31 > 100 µM | A549 > 100 µM | TK-10 > 100 µM | NCI-H522 > 100 µM | NCI-H23 > 100 µM | SNB-75 > 100 µM | HCT-116 > 100 µM | NCI-H226 > 100 µM | 786-0 > 100 µM | CAKI-1 > 100 µM | MCF7 > 100 µM | SW-620 > 100 µM | BT-549 > 100 µM | DU-145 > 100 µM | MDA-N > 100 µM | HOP-62 > 100 µM | SN12C > 100 µM | OVCAR-3 > 100 µM | U-251 > 100 µM | MOLT-4 > 100 µM | SK-OV-3 > 100 µM | SF-539 > 100 µM | OVCAR-5 > 100 µM | SNB-19 > 100 µM | HCC 2998 > 100 µM | IGROV-1 > 100 µM | HT-29 > 100 µM | KM12 > 100 µM | PC-3 > 100 µM | NCI-H460 > 100 µM | SK-MEL-28 > 100 µM | UACC-62 > 100 µM | OVCAR-4 > 100 µM | M14 > 100 µM | SF-268 > 100 µM | UACC-257 > 100 µM

COC(=O)[C@H](Cc1ccccc1)NC(=O)NCCN(CCNC(=O)N[C@@H](Cc1ccccc1)C(=O)OC)C(=O)N[C@@H](Cc1ccccc1)C(=O)OC
inactive: Hs-578T 23.8 µM | SK-MEL-5 20.7 µM | MDA-MB-231 23.7 µM | Malme-3M 22 µM | HOP-92 35.4 µM | ACHN 24.5 µM | SK-MEL-2 21.8 µM | MDA-MB-435 22.3 µM | COLO 205 21.9 µM | T47D 22.6 µM | SF-295 18.9 µM | A498 32.9 µM | EKVX 30.6 µM | K562 22.3 µM | RXF 393 16.9 µM | OVCAR-8 18.3 µM | LOX IMVI 38.4 µM | UO-31 24.3 µM | A549 29 µM | TK-10 20.1 µM | NCI-H522 15.7 µM | NCI-H23 18.9 µM | SNB-75 20.7 µM | HCT-116 20.3 µM | NCI-H226 18.2 µM | 786-0 19.5 µM | CAKI-1 > 45.8 µM | MCF7 26 µM | SW-620 22.8 µM | BT-549 18.9 µM | DU-145 21.1 µM | MDA-N 18.2 µM | HOP-62 20.7 µM | SN12C > 10 µM | OVCAR-3 19.5 µM | U-251 21.8 µM | MOLT-4 20.2 µM | SK-OV-3 31.9 µM | SF-539 18.8 µM | RPMI-8226 25.3 µM | NCI/ADR-RES > 100 µM | OVCAR-5 20.4 µM | SNB-19 24.7 µM | HCC 2998 20.3 µM | KM12 20.9 µM | PC-3 22.3 µM | NCI-H460 18.8 µM | SK-MEL-28 19.4 µM | UACC-62 25.5 µM | OVCAR-4 15.2 µM | M14 25.6 µM | SF-268 17 µM | UACC-257 20.7 µM
> 50.1 µM: HCT-15

Cc1nc(-c2cc3cc([N+](=O)[O-])ccc3oc2=O)cs1
inactive: Hs-578T > 100 µM | SK-MEL-5 > 100 µM | MDA-MB-231 80.7 µM | SR 71.3 µM | HOP-92 67.3 µM | ACHN > 100 µM | SK-MEL-2 > 100 µM | MDA-MB-435 > 100 µM | COLO 205 > 100 µM | T47D > 100 µM | CCRF-CEM 32.9 µM | SF-295 > 100 µM | EKVX > 100 µM | HL-60 31.8 µM | K562 71.8 µM | RXF 393 > 100 µM | LOX IMVI > 100 µM | UO-31 > 100 µM | A549 > 100 µM | TK-10 > 100 µM | SNB-75 1.25 µM | HCT-116 > 100 µM | NCI-H226 > 100 µM | 786-0 > 100 µM | CAKI-1 > 100 µM | MCF7 > 100 µM | SW-620 > 100 µM | BT-549 > 100 µM | DU-145 > 100 µM | MDA-N > 100 µM | HOP-62 > 100 µM | SN12C > 100 µM | U-251 > 100 µM | MOLT-4 > 100 µM | SK-OV-3 > 100 µM | SF-539 > 100 µM | RPMI-8226 > 100 µM | OVCAR-5 > 100 µM | SNB-19 > 100 µM | HCC 2998 > 100 µM | IGROV-1 > 100 µM | HT-29 > 100 µM | KM12 > 100 µM | PC-3 > 100 µM | NCI-H460 > 100 µM | SK-MEL-28 > 100 µM | UACC-62 > 100 µM | OVCAR-4 > 100 µM | M14 > 100 µM | SF-268 > 100 µM | UACC-257 > 100 µM
> 100 µM: HCT-15

CC(C)CC1C(=O)OC(C)(C)OC1=O
> 100 µM: HCT-15
inactive: Hs-578T > 100 µM | SK-MEL-5 > 100 µM | MDA-MB-231 > 100 µM | ACHN > 100 µM | SK-MEL-2 > 100 µM | MDA-MB-435 > 100 µM | COLO 205 > 100 µM | T47D > 100 µM | CCRF-CEM > 100 µM | SF-295 > 100 µM | A498 > 100 µM | EKVX > 100 µM | K562 > 100 µM | RXF 393 > 100 µM | OVCAR-8 > 100 µM | LOX IMVI > 100 µM | UO-31 > 100 µM | A549 > 100 µM | TK-10 > 100 µM | NCI-H522 > 100 µM | NCI-H23 > 100 µM | SNB-75 > 100 µM | HCT-116 > 100 µM | NCI-H226 > 100 µM | 786-0 > 100 µM | CAKI-1 > 100 µM | MCF7 > 100 µM | SW-620 > 100 µM | BT-549 > 100 µM | DU-145 > 100 µM | MDA-N > 100 µM | HOP-62 > 100 µM | SN12C > 100 µM | OVCAR-3 > 100 µM | U-251 > 100 µM | MOLT-4 > 100 µM | SK-OV-3 > 100 µM | SF-539 > 100 µM | RPMI-8226 > 100 µM | NCI/ADR-RES > 100 µM | OVCAR-5 > 100 µM | SNB-19 > 100 µM | HCC 2998 > 100 µM | IGROV-1 > 100 µM | HT-29 > 100 µM | KM12 > 100 µM | PC-3 > 100 µM | NCI-H460 > 100 µM | SK-MEL-28 > 100 µM | UACC-62 > 100 µM | OVCAR-4 > 100 µM | M14 > 100 µM | SF-268 > 100 µM | UACC-257 > 100 µM

COC(CNC(=O)C(C)NC(=O)C(C)NC(=O)c1ccccc1)OC (stereo not given)
inactive: Hs-578T > 100 µM | SK-MEL-5 > 100 µM | MDA-MB-231 > 100 µM | Malme-3M > 100 µM | SR > 100 µM | HOP-92 > 100 µM | ACHN > 100 µM | SK-MEL-2 > 100 µM | MDA-MB-435 > 100 µM | COLO 205 > 100 µM | T47D > 100 µM | CCRF-CEM > 100 µM | SF-295 > 100 µM | EKVX > 100 µM | K562 > 100 µM | RXF 393 > 100 µM | OVCAR-8 > 100 µM | A549 > 100 µM | TK-10 > 100 µM | NCI-H522 > 100 µM | NCI-H23 > 100 µM | SNB-75 > 100 µM | HCT-116 > 100 µM | NCI-H226 > 100 µM | 786-0 > 100 µM | CAKI-1 > 100 µM | MCF7 > 100 µM | SW-620 > 100 µM | BT-549 > 100 µM | DU-145 > 100 µM | MDA-N > 100 µM | SN12C > 100 µM | U-251 > 100 µM | MOLT-4 > 100 µM | SK-OV-3 > 100 µM | SF-539 > 100 µM | RPMI-8226 > 100 µM | NCI/ADR-RES > 100 µM | OVCAR-5 > 100 µM | IGROV-1 > 100 µM | HT-29 > 100 µM | KM12 > 100 µM | PC-3 > 100 µM | NCI-H460 > 100 µM | UACC-62 > 100 µM | OVCAR-4 > 100 µM | M14 > 100 µM | SF-268 > 100 µM | UACC-257 > 100 µM
> 100 µM: HCT-15
